What was measured:
Assay type in all cases: cell-based
[1] = target: T1, GSPT1 (Homo sapiens, UniProt P15170+Q96SW2); experiment: HiBiT degradation assay, GSPT1, Procedure A; parameters: HiBit-GSPT1 KI HEK293(LgBit) Cells; host or cells: HEK293(LgBit) knock-in cells; details: six hours
Method in brief: (§1)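 10-pt dose response, 10–0.005 μM, 0.1% DMSO; cells 1×10^6/ml in DMEM/10% FBS, 6 h, 37° C; HiBiT lytic detection, luminescence; DC50 + Ymin by 4-parameter fit.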

[2] = test system: Z-138 cells; experiment: Z-138 Proliferation Assay (Cell Titer-Glo); details: 72 hours; for Ymin (%): % remaining (percent of DMSO control); for EC50: Homo sapiens, Cell Titer-Glo, 4-parameter curve fit
Method in brief: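 Z-138 cells (4,000 cells/well, IMDM + 10% FBS) exposed 72 h to 10-point 1:2 compound dilutions from 10,000 nM top, 0.1% DMSO. Viability read by CellTiter-Glo luminescence; EC50 from 4-parameter fit of percent of DMSO control.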

[3] = target: T2, CK1α (Homo sapiens, UniProt P48729+Q96SW2); experiment: HiBiT degradation assay, CK1α, Procedure A; details: six hours
T2 construct: CSNK1A1-HiBit KI HEK293(LgBit) Cells; host or cells: HEK293(LgBit) knock-in cells
Method in brief: as §1

[4] = target: T1, GSPT1; experiment: HiBiT degradation assay, GSPT1, Procedure B (Molt 4_hGSPT1_HiBIT cells); parameters: Molt 4_hGSPT1_HiBIT N-terminus tagged cells were generated using CRISPR technology; endogenous in cells; host or cells: Molt 4 cells, CRISPR-edited; details: six hours
Method in brief: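 CRISPR N-terminal HiBiT-tagged Molt 4 cells at 1×10^6 cells/ml were treated 6 h at 37° C with compounds (10-point, 10 μM to 0.005 μM, 0.1% DMSO). Remaining HiBiT-GSPT1 was read by lytic luminescence; DC50 and Ymin (% remaining) from a 4-parameter fit.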

T1 sequence (P15170 whole entry): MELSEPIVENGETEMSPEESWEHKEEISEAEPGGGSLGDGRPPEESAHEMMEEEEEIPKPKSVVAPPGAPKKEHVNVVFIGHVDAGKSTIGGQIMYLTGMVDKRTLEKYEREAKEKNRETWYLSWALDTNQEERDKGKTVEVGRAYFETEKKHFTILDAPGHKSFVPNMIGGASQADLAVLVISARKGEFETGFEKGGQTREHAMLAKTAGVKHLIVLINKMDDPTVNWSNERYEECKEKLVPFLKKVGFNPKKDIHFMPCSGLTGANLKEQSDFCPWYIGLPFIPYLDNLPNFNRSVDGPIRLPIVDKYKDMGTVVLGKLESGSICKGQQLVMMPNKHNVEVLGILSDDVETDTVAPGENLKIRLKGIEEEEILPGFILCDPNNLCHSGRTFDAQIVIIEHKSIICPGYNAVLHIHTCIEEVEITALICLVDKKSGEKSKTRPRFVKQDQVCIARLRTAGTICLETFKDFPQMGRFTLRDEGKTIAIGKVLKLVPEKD
T1 sequence (Q96SW2 whole entry): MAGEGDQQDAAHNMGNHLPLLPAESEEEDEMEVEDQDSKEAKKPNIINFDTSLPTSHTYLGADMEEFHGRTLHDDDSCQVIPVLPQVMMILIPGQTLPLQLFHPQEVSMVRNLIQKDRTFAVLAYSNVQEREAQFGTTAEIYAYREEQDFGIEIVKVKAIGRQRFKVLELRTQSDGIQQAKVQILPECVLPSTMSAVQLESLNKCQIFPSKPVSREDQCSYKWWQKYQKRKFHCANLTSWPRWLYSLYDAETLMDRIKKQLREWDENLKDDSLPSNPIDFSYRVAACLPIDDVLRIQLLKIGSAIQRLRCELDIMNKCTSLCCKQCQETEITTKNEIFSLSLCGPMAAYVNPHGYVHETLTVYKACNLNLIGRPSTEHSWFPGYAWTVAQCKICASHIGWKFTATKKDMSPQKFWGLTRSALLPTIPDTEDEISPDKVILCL
T1 sequence (Q16531 whole entry partner): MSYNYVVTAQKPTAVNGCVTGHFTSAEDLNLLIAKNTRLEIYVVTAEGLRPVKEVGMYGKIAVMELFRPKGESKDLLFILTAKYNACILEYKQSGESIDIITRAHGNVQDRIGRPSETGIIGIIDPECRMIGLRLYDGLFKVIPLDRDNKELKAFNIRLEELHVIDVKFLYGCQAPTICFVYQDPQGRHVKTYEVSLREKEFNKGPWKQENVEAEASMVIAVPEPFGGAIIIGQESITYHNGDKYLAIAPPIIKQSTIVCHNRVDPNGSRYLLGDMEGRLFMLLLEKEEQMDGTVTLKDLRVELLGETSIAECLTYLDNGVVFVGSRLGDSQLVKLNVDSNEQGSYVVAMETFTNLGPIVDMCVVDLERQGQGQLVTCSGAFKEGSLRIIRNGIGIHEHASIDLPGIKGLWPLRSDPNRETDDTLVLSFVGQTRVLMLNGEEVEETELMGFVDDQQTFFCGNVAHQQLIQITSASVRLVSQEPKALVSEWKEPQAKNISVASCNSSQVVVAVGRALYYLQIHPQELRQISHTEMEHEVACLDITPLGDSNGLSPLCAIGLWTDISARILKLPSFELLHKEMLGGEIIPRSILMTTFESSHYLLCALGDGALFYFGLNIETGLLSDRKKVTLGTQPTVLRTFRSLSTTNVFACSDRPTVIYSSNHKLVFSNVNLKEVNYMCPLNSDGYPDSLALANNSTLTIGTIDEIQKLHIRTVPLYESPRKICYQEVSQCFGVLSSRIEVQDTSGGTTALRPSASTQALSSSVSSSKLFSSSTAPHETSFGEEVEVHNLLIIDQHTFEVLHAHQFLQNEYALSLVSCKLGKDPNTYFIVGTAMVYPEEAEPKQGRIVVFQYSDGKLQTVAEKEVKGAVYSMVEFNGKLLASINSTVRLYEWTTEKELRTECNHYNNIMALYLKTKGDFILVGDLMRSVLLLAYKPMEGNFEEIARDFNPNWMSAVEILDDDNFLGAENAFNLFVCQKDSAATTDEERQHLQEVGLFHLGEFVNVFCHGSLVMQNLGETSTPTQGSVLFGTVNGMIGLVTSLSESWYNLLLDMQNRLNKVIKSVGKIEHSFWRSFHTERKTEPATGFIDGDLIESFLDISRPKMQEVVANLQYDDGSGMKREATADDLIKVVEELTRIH
T2 sequence (P48729 whole entry): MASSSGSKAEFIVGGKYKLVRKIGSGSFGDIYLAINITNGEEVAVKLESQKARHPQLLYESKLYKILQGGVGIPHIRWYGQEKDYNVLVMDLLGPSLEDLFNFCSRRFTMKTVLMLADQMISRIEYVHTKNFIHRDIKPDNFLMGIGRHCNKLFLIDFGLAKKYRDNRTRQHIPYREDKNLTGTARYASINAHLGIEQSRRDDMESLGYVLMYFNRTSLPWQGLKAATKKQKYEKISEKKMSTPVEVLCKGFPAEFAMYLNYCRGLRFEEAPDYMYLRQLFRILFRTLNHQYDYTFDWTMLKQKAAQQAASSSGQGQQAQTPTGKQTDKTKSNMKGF
T2 sequence (Q96SW2 whole entry): as the sequence (Q96SW2 whole entry) above
T2 sequence (Q16531 whole entry partner): as the sequence (Q16531 whole entry partner) above

Question: `Cn1nc(-c2ccc3c(c2)CN(C2CCC(=O)NC2=O)C3=O)nc1C1CCC(F)(F)CC1` (stereo not drawn) [Example 606, 3-(5-(5-(4,4-difluorocyclohexyl)-1-methyl-1H-1,2,4-triazol-3-yl)-1-oxoisoindolin-2-yl)piperidine-2,6-dione] was tested. Which DC50 [1] did it give?
Answer: ≥ 25 nM

Question: What about the “GSPT1 Ymin” value [1] of the same compound?
Answer: F (F = >75-100% remaining)

Question: What about the “Ymin (%)” value [2] of the same compound?
Answer: F (>25-50% remaining)

Question: And the EC50 [2]?
Answer: 10 to 100 nM

Question: And the “CK1α Ymin” value [3]?
Answer: E (E = >25-75% remaining)

Question: And the DC50 [3]?
Answer: ≥ 25 nM

Question: What does the source list for `Cn1nc(-c2ccc3c(c2)CN(C2CCC(=O)NC2=O)C3=O)nc1C1CCCCC1` (stereo not drawn) [Example 614, 3-(5-(5-cyclohexyl-1-methyl-1H-1,2,4-triazol-3-yl)-1-oxoisoindolin-2-yl)piperidine-2,6-dione]?
Answer: DC50 [1]: ≥ 25 nM; GSPT1 Ymin [1]: F (F = >75-100% remaining); Ymin (%) [2]: F (>25-50% remaining); EC50 [2]: 10 to 100 nM; CK1α Ymin [3]: D (D = >10- 25% remaining); DC50 [3]: ≥ 25 nM

Question: Which DC50 [1] does the source give for `Cc1c(-c2ccc3c(c2)CN(C2CCC(=O)NC2=O)C3=O)nc(C2CCOCC2)n1C` (stereo not drawn) [Example 615, 3-(5-(1,5-dimethyl-2-(tetrahydro-2H-pyran-4-yl)-1H-imidazol-4-yl)-1-oxoisoindolin-2-yl)piperidine-2,6-dione] here?
Answer: < 25 nM

Question: What about the “GSPT1 Ymin” value [1] of the same compound?
Answer: F (F = >75-100% remaining)

Question: What about the “Ymin (%)” value [2] of the same compound?
Answer: E (>10-25% remaining)

Question: What about the EC50 [2] of the same compound?
Answer: 10 to 100 nM

Question: And the “CK1α Ymin” value [3]?
Answer: C (C = 0-10% remaining)

Question: What about the DC50 [3] of the same compound?
Answer: < 25 nM

Question: `Cn1nc(-c2ccc3c(c2)CN(C2CCC(=O)NC2=O)C3=O)nc1-c1ccc(C(F)(F)F)cc1` (stereo not drawn) [Example 619, 3-(5-(1-methyl-5-(4-(trifluoromethyl)phenyl)-1H-1,2,4-triazol-3-yl)-1-oxoisoindolin-2-yl)piperidine-2,6-dione] was tested. Which DC50 [1] did it give?
Answer: ≥ 25 nM

Question: And the “GSPT1 Ymin” value [1]?
Answer: F (F = >75-100% remaining)

Question: And the “Ymin (%)” value [2]?
Answer: F (>25-50% remaining)

Question: And the EC50 [2]?
Answer: 10 to 100 nM

Question: And the “CK1α Ymin” value [3]?
Answer: E (E = >25-75% remaining)

Question: And the DC50 [3]?
Answer: < 25 nM

Question: How did the DC50 [4] turn out when `O=C1CCC(N2Cc3cc(-c4cc(-c5ccccc5)n(C5CC5)n4)ccc3C2=O)C(=O)N1` (stereo not drawn) [Example 621, 3-(5-(1-cyclopropyl-5-phenyl-1H-pyrazol-3-yl)-1-oxoisoindolin-2-yl)piperidine-2,6-dione] was run?
Answer: ≥ 25 nM

Question: And the “GSPT1 Ymin” value [4]?
Answer: F (F = >75-100% remaining)

Question: And the “Ymin (%)” value [2]?
Answer: D (0-10% remaining)

Question: And the EC50 [2]?
Answer: < 10 nM

Question: What about the “CK1α Ymin” value [3] of the same compound?
Answer: C (C = 0-10% remaining)

Question: What about the DC50 [3] of the same compound?
Answer: < 25 nM

Question: What does the source list for `Cn1nc(-c2ccc3c(c2)CN(C2CCC(=O)NC2=O)C3=O)nc1-c1ccc(Cl)cc1` (stereo not drawn) [Example 622, 3-(5-(5-(4-chlorophenyl)-1-methyl-1H-1,2,4-triazol-3-yl)-1-oxoisoindolin-2-yl)piperidine-2,6-dione]?
Answer: DC50 [4]: ≥ 25 nM; GSPT1 Ymin [4]: E (E = >25-75% remaining); Ymin (%) [2]: E (>10-25% remaining); EC50 [2]: 10 to 100 nM; CK1α Ymin [3]: D (D = >10- 25% remaining); DC50 [3]: < 25 nM

Question: With `Cn1ncc(-c2ccc3c(c2)CN(C2CCC(=O)NC2=O)C3=O)c1C1CCCC1` (stereo not drawn) [Example 692] as the compound, how does the DC50 [4] read?
Answer: ≥ 25 nM

Question: And the “GSPT1 Ymin” value [4]?
Answer: F (F = >75-100% remaining)

Question: And the “Ymin (%)” value [2]?
Answer: E (>10-25% remaining)

Question: What about the EC50 [2] of the same compound?
Answer: 100 to 500 nM

Question: What about the “CK1α Ymin” value [3] of the same compound?
Answer: E (E = >25-75% remaining)

Question: What about the DC50 [3] of the same compound?
Answer: ≥ 25 nM

Question: `O=C1CCC(N2Cc3cc(-c4nc(-c5ccccc5)n(C(F)F)n4)ccc3C2=O)C(=O)N1` (stereo not drawn) [Example 703, 3-(5-(1-(difluoromethyl)-5-phenyl-1H-1,2,4-triazol-3-yl)-1-oxoisoindolin-2-yl) piperidine-2,6-dione] was tested. Which DC50 [1] did it give?
Answer: ≥ 25 nM

Question: What about the “GSPT1 Ymin” value [1] of the same compound?
Answer: F (F = >75-100% remaining)

Question: What about the “Ymin (%)” value [2] of the same compound?
Answer: E (>10-25% remaining)

Question: What about the EC50 [2] of the same compound?
Answer: 10 to 100 nM

Question: And the “CK1α Ymin” value [3]?
Answer: D (D = >10- 25% remaining)

Question: And the DC50 [3]?
Answer: < 25 nM

Question: For `O=C1CCC(N2Cc3cc(-c4nc(-c5ccccc5)n(C5CC5)n4)ccc3C2=O)C(=O)N1` (stereo not drawn) [Example 705, 3-(5-(1-cyclopropyl-5-phenyl-1H-1,2,4-triazol-3-yl)-1-oxoisoindolin-2-yl)piperidine-2,6-dione], which DC50 [1] is on record?
Answer: < 25 nM

Question: And the “GSPT1 Ymin” value [1]?
Answer: F (F = >75-100% remaining)

Question: And the “Ymin (%)” value [2]?
Answer: E (>10-25% remaining)

Question: What about the EC50 [2] of the same compound?
Answer: 10 to 100 nM

Question: What about the “CK1α Ymin” value [3] of the same compound?
Answer: C (C = 0-10% remaining)

Question: What about the DC50 [3] of the same compound?
Answer: < 25 nM

Question: Which results are given for `O=C1CCC(N2Cc3cc(-c4cc(-c5ccccc5)n(CC(F)(F)F)n4)ccc3C2=O)C(=O)N1` (stereo not drawn) [Example 710, 3-(1-oxo-5-(5-phenyl-1-(2,2,2-trifluoroethyl)-1H-pyrazol-3-yl)isoindolin-2-yl)piperidine-2,6-dione]?
Answer: DC50 [4]: < 25 nM; GSPT1 Ymin [4]: F (F = >75-100% remaining); Ymin (%) [2]: E (>10-25% remaining); EC50 [2]: < 10 nM; CK1α Ymin [3]: C (C = 0-10% remaining); DC50 [3]: < 25 nM

Question: How did the DC50 [4] turn out when `Cn1nc(-c2ccc3c(c2)CN(C2CCC(=O)NC2=O)C3=O)cc1-c1ccc(Cl)cc1` (stereo not drawn) [Example 717, 3-(5-(5-(4-chlorophenyl)-1-methyl-1H-pyrazol-3-yl)-1-oxoisoindolin-2-yl)piperidine-2,6-dione] was run?
Answer: ≥ 25 nM

Question: And the “GSPT1 Ymin” value [4]?
Answer: F (F = >75-100% remaining)

Question: And the “Ymin (%)” value [2]?
Answer: E (>10-25% remaining)

Question: What about the EC50 [2] of the same compound?
Answer: 10 to 100 nM

Question: What about the “CK1α Ymin” value [3] of the same compound?
Answer: D (D = >10- 25% remaining)

Question: And the DC50 [3]?
Answer: < 25 nM

Question: `CC(C)c1nc(-c2ccc3c(c2)CN(C2CCC(=O)NC2=O)C3=O)c(-c2ccccc2)n1C` (stereo not drawn) [Example 726, 3-(5-(2-isopropyl-1-methyl-5-phenyl-1H-imidazol-4-yl)-1-oxoisoindolin-2-yl)piperidine-2,6-dione] was tested. Which DC50 [4] did it give?
Answer: ≥ 25 nM

Question: And the “GSPT1 Ymin” value [4]?
Answer: F (F = >75-100% remaining)

Question: And the “Ymin (%)” value [2]?
Answer: D (0-10% remaining)

Question: What about the EC50 [2] of the same compound?
Answer: < 10 nM

Question: And the “CK1α Ymin” value [3]?
Answer: C (C = 0-10% remaining)

Question: And the DC50 [3]?
Answer: < 25 nM

Question: With `CC(C)c1nc(-c2ccc3c(c2)CN(C2CCC(=O)NC2=O)C3=O)cn1-c1ccccc1` (stereo not drawn) [Example 728, 3-(5-(2-isopropyl-1-phenyl-1H-imidazol-4-yl)-1-oxoisoindolin-2-yl)piperidine-2,6-dione] as the compound, how does the DC50 [4] read?
Answer: ≥ 25 nM

Question: And the “GSPT1 Ymin” value [4]?
Answer: F (F = >75-100% remaining)

Question: What about the “Ymin (%)” value [2] of the same compound?
Answer: E (>10-25% remaining)

Question: And the EC50 [2]?
Answer: < 10 nM

Question: And the “CK1α Ymin” value [3]?
Answer: C (C = 0-10% remaining)

Question: What about the DC50 [3] of the same compound?
Answer: < 25 nM

Question: For `Cc1cn(-c2ccccc2)c(-c2ccc3c(c2)CN(C2CCC(=O)NC2=O)C3=O)n1` (stereo not drawn) [Example 729, 3-(5-(4-methyl-1-phenyl-1H-imidazol-2-yl)-1-oxoisoindolin-2-yl)piperidine-2,6-dione], which DC50 [4] is on record?
Answer: < 25 nM

Question: And the “GSPT1 Ymin” value [4]?
Answer: E (E = >25-75% remaining)

Question: And the “Ymin (%)” value [2]?
Answer: D (0-10% remaining)

Question: What about the EC50 [2] of the same compound?
Answer: < 10 nM

Question: And the “CK1α Ymin” value [3]?
Answer: C (C = 0-10% remaining)

Question: What about the DC50 [3] of the same compound?
Answer: < 25 nM

Question: Which results are given for `CCc1cn(-c2ccccc2)c(-c2ccc3c(c2)CN(C2CCC(=O)NC2=O)C3=O)n1` (stereo not drawn) [Example 730, 3-(5-(4-ethyl-1-phenyl-1H-imidazol-2-yl)-1-oxoisoindolin-2-yl)piperidine-2,6-dione]?
Answer: DC50 [4]: < 25 nM; GSPT1 Ymin [4]: E (E = >25-75% remaining); Ymin (%) [2]: D (0-10% remaining); EC50 [2]: < 10 nM; CK1α Ymin [3]: C (C = 0-10% remaining); DC50 [3]: < 25 nM

Question: What does the source list for `CC(C)c1cn(-c2ccccc2)c(-c2ccc3c(c2)CN(C2CCC(=O)NC2=O)C3=O)n1` (stereo not drawn) [Example 731, 3-(5-(4-isopropyl-1-phenyl-1H-imidazol-2-yl)-1-oxoisoindolin-2-yl)piperidine-2,6-dione]?
Answer: DC50 [4]: < 25 nM; GSPT1 Ymin [4]: E (E = >25-75% remaining); Ymin (%) [2]: D (0-10% remaining); EC50 [2]: < 10 nM; CK1α Ymin [3]: C (C = 0-10% remaining); DC50 [3]: < 25 nM

Question: Which results are given for `CC(C)Cc1nc(-c2ccc3c(c2)CN(C2CCC(=O)NC2=O)C3=O)c(-c2ccccc2)o1` (stereo not drawn) [Example 732, 3-(5-(2-isobutyl-5-phenyloxazol-4-yl)-1-oxoisoindolin-2-yl)piperidine-2,6-dione]?
Answer: DC50 [4]: < 25 nM; GSPT1 Ymin [4]: F (F = >75-100% remaining); Ymin (%) [2]: D (0-10% remaining); EC50 [2]: < 10 nM; CK1α Ymin [3]: C (C = 0-10% remaining); DC50 [3]: < 25 nM

Question: What does the source list for `CC(C)c1nc(-c2ccc3c(c2)CN(C2CCC(=O)NC2=O)C3=O)c(-c2ccccc2)o1` (stereo not drawn) [Example 733, 3-(5-(2-isopropyl-5-phenyloxazol-4-yl)-1-oxoisoindolin-2-yl)piperidine-2,6-dione]?
Answer: DC50 [4]: ≥ 25 nM; GSPT1 Ymin [4]: F (F = >75-100% remaining); Ymin (%) [2]: D (0-10% remaining); EC50 [2]: < 10 nM; CK1α Ymin [3]: C (C = 0-10% remaining); DC50 [3]: < 25 nM
